Patent US20240393292A1, “ALLERGY ANTIGEN AND EPITOPE THEREOF” (HOYU CO., LTD., priority 2019, published 2024)

Test system: IgE antibodies from patients
Experiment: Wheat epitope mapping (2): overlapping 10-amino-acid peptide fragments shifted by one amino acid
Assay type: binding, human
Conditions: sequence without X; for Epitope sequence binding to IgE antibody, rank of the sequence (Key/Preferably/More preferably/Further preferably): serum of patient P50 (child, general immediate type allergy to wheat)
In short: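 Cellulose-bound 10-mer peptides offset by one residue were probed with patient serum IgE and detected by chemiluminescence. Secondary-antibody-only signals were subtracted per peptide. Residual binding was expressed as % of the parent overlapping peptide, scored as none (<30%), poor (30–<50%), somewhat poor (50–<70%) or retained (≥70%).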

[1] = serum of patient P52 (child, general immediate type allergy to wheat)
[2] = serum of patient P53 (child, general immediate type allergy to wheat)
[3] = serum of patient P55 (child, general immediate type allergy to wheat)
[4] = serum of patient G1 (adult, general immediate type allergy to wheat)
[5] = serum of patient G6 (adult, general immediate type allergy to wheat)
[6] = serum of patient G4 (adult, general immediate type allergy to wheat)
[7] = serum of patient G7 (adult, general immediate type allergy to wheat)
[8] = serum of patient G9 (adult, general immediate type allergy to wheat)

## 2244 (RNYRVA; REGION 1..6: note = epitope) [compound 2244]
Serum of patient P36 (WDEIA)
  Epitope sequence binding to IgE antibody, rank of the sequence (Key/Preferably/More preferably): Key

## 2245 (SRLLRGIR; REGION 1..8: note = epitope) [compound 2245]
  Epitope sequence binding to IgE antibody, rank of the sequence (Key/Preferably/More preferably/Further preferably): Preferably

## 2246 (SRLLR; REGION 1..5: note = epitope) [compound 2246]
  Epitope sequence binding to IgE antibody, rank of the sequence (Key/Preferably/More preferably/Further preferably): Key

## 2247 (LLRGIRNYRV; REGION 1..10: note = epitope) [compound 2247]
  Epitope sequence binding to IgE antibody, rank of the sequence (Key/Preferably/More preferably/Further preferably): Key

## 2248 (IRNYRVAI; REGION 1..8: note = epitope) [compound 2248]
  Epitope sequence binding to IgE antibody, rank of the sequence (Key/Preferably/More preferably/Further preferably): Key

## 2250 (SRLLRGIRN; REGION 1..9: note = epitope) [compound 2250]
[1]
  Epitope sequence binding to IgE antibody, rank of the sequence (Key/Preferably/More preferably): Preferably

## 2251 (SRLLRGIR; REGION 1..8: note = epitope) [compound 2251]
[1]
  Epitope sequence binding to IgE antibody, rank of the sequence (Key/Preferably/More preferably): Key

## 2252 (LLRGIRNYRV; REGION 1..10: note = epitope) [compound 2252]
[1]
  Epitope sequence binding to IgE antibody, rank of the sequence (Key/Preferably/More preferably): More preferably

## 2253 (RNYRVAI; REGION 1..7: note = epitope) [compound 2253]
[1]
  Epitope sequence binding to IgE antibody, rank of the sequence (Key/Preferably/More preferably): Preferably

## 2254 (NYRV; REGION 1..4: note = epitope) [compound 2254]
[1]
  Epitope sequence binding to IgE antibody, rank of the sequence (Key/Preferably/More preferably): Key

## 2255 (LLRGIRNYRV; REGION 1..10: note = epitope) [compound 2255]
[2]
  Epitope sequence binding to IgE antibody, rank of the sequence (Key/Preferably/More preferably): Preferably

## 2256 (LRGIRN; REGION 1..6: note = epitope) [compound 2256]
[2]
  Epitope sequence binding to IgE antibody, rank of the sequence (Key/Preferably/More preferably): Key

## 2257 (SRLLRGIRN; REGION 1..9: note = epitope) [compound 2257]
[3]
  Epitope sequence binding to IgE antibody, rank of the sequence (Key/Preferably/More preferably): Key

## 2258 (LRGIRNYRVA; REGION 1..10: note = epitope) [compound 2258]
[3]
  Epitope sequence binding to IgE antibody, rank of the sequence (Key/Preferably/More preferably): Preferably

## 2259 (RNYRV; REGION 1..5: note = epitope) [compound 2259]
[3]
  Epitope sequence binding to IgE antibody, rank of the sequence (Key/Preferably/More preferably): Key

## 2260 (SRLLR; REGION 1..5: note = epitope) [compound 2260]
[4]
  Epitope sequence binding to IgE antibody, rank of the sequence (Key/Preferably/More preferably): Key

## 2261 (LLRGIRNYRV; REGION 1..10: note = epitope) [compound 2261]
[4]
  Epitope sequence binding to IgE antibody, rank of the sequence (Key/Preferably/More preferably): Key

## 2262 (RNYRVAI; REGION 1..7: note = epitope) [compound 2262]
[4]
  Epitope sequence binding to IgE antibody, rank of the sequence (Key/Preferably/More preferably): Key

## 2263 (SRLLR; REGION 1..5: note = epitope) [compound 2263]
[5]
  Epitope sequence binding to IgE antibody, rank of the sequence (Key/Preferably/More preferably): Key

## 2264 (NYRVAI; REGION 1..6: note = epitope) [compound 2264]
[5]
  Epitope sequence binding to IgE antibody, rank of the sequence (Key/Preferably/More preferably): Key

## 2266 (GGIDKRV; REGION 1..7: note = epitope) [compound 2266]
Serum of patient P5 (WDEIA)
  Epitope sequence binding to IgE antibody, rank of the sequence (Key/Preferably/More preferably): Key

## 2267 (KRVIERFEK; REGION 1..9: note = epitope) [compound 2267]
Serum of patient P5 (WDEIA)
  Epitope sequence binding to IgE antibody, rank of the sequence (Key/Preferably/More preferably): Preferably

## 2268 (ERFEK; REGION 1..5: note = epitope) [compound 2268]
Serum of patient P5 (WDEIA)
  Epitope sequence binding to IgE antibody, rank of the sequence (Key/Preferably/More preferably): Key

## 2269 (LGGIDK; REGION 1..6: note = epitope) [compound 2269]
Serum of patient P7 (WDEIA)
  Epitope sequence binding to IgE antibody, rank of the sequence (Key/Preferably/More preferably): Key

## 2270 (DKRVIERFEK; REGION 1..10: note = epitope) [compound 2270]
Serum of patient P7 (WDEIA)
  Epitope sequence binding to IgE antibody, rank of the sequence (Key/Preferably/More preferably): Key

## 2271 (LGGIDKRV; REGION 1..8: note = epitope) [compound 2271]
Serum of patient P8 (WDEIA)
  Epitope sequence binding to IgE antibody, rank of the sequence (Key/Preferably/More preferably): More preferably

## 2272 (GIDKRVIERF; REGION 1..10: note = epitope) [compound 2272]
Serum of patient P8 (WDEIA)
  Epitope sequence binding to IgE antibody, rank of the sequence (Key/Preferably/More preferably): Preferably

## 2273 (GIDKRV; REGION 1..6: note = epitope) [compound 2273]
Serum of patient P8 (WDEIA)
  Epitope sequence binding to IgE antibody, rank of the sequence (Key/Preferably/More preferably): Key

## 2274 (DKRVIERFEK; REGION 1..10: note = epitope) [compound 2274]
Serum of patient P8 (WDEIA)
  Epitope sequence binding to IgE antibody, rank of the sequence (Key/Preferably/More preferably): Preferably

## 2275 (KRVIERFEK; REGION 1..9: note = epitope) [compound 2275]
Serum of patient P8 (WDEIA)
  Epitope sequence binding to IgE antibody, rank of the sequence (Key/Preferably/More preferably): Key

## 2276 (GGIDK; REGION 1..5: note = epitope) [compound 2276]
Serum of patient P10 (WDEIA)
  Epitope sequence binding to IgE antibody, rank of the sequence (Key/Preferably/More preferably): Key

## 2277 (DKRVIERFEK; REGION 1..10: note = epitope) [compound 2277]
Serum of patient P10 (WDEIA)
  Epitope sequence binding to IgE antibody, rank of the sequence (Key/Preferably/More preferably): Key

## 2279 (LGGIDK; REGION 1..6: note = epitope) [compound 2279]
Serum of patient P14 (WDEIA)
  Epitope sequence binding to IgE antibody, rank of the sequence (Key/Preferably/More preferably): Key

## 2280 (DKRVIERFEK; REGION 1..10: note = epitope) [compound 2280]
Serum of patient P14 (WDEIA)
  Epitope sequence binding to IgE antibody, rank of the sequence (Key/Preferably/More preferably): Preferably

## 2282 (IDKRVIER; REGION 1..8: note = epitope) [compound 2282]
Serum of patient P18 (WDEIA)
  Epitope sequence binding to IgE antibody, rank of the sequence (Key/Preferably/More preferably): Key

## 2283 (ERFEKE; REGION 1..6: note = epitope) [compound 2283]
Serum of patient P18 (WDEIA)
  Epitope sequence binding to IgE antibody, rank of the sequence (Key/Preferably/More preferably): Key

## 2284 (LGGIDK; REGION 1..6: note = epitope) [compound 2284]
Serum of patient P26 (WDEIA)
  Epitope sequence binding to IgE antibody, rank of the sequence (Key/Preferably/More preferably): Preferably

## 2285 (GIDK; REGION 1..4: note = epitope) [compound 2285]
Serum of patient P26 (WDEIA)
  Epitope sequence binding to IgE antibody, rank of the sequence (Key/Preferably/More preferably): Key

## 2286 (DKRVIERFEK; REGION 1..10: note = epitope) [compound 2286]
Serum of patient P26 (WDEIA)
  Epitope sequence binding to IgE antibody, rank of the sequence (Key/Preferably/More preferably): Preferably

## 2287 (KRVIERFEK; REGION 1..9: note = epitope) [compound 2287]
Serum of patient P26 (WDEIA)
  Epitope sequence binding to IgE antibody, rank of the sequence (Key/Preferably/More preferably): Key

## 2288 (KRVIERF; REGION 1..7: note = epitope) [compound 2288]
Serum of patient P27 (WDEIA)
  Epitope sequence binding to IgE antibody, rank of the sequence (Key/Preferably/More preferably): Key

## 2289 (GGIDK; REGION 1..5: note = epitope) [compound 2289]
Serum of patient P33 (WDEIA)
  Epitope sequence binding to IgE antibody, rank of the sequence (Key/Preferably/More preferably): Key

## 2290 (DKRVIERFE; REGION 1..9: note = epitope) [compound 2290]
Serum of patient P33 (WDEIA)
  Epitope sequence binding to IgE antibody, rank of the sequence (Key/Preferably/More preferably): Key

## 2291 (LGGIDK; REGION 1..6: note = epitope) [compound 2291]
Serum of patient P34 (WDEIA)
  Epitope sequence binding to IgE antibody, rank of the sequence (Key/Preferably/More preferably): Key

## 2292 (KRVIERFEK; REGION 1..9: note = epitope) [compound 2292]
Serum of patient P34 (WDEIA)
  Epitope sequence binding to IgE antibody, rank of the sequence (Key/Preferably/More preferably): Preferably

## 2293 (ERFE; REGION 1..4: note = epitope) [compound 2293]
Serum of patient P34 (WDEIA)
  Epitope sequence binding to IgE antibody, rank of the sequence (Key/Preferably/More preferably): Key

## 2294 (LGGIDKRVIE; REGION 1..10: note = epitope) [compound 2294]
  Epitope sequence binding to IgE antibody, rank of the sequence (Key/Preferably/More preferably/Further preferably): More preferably

## 2295 (LGGIDKRV; REGION 1..8: note = epitope) [compound 2295]
  Epitope sequence binding to IgE antibody, rank of the sequence (Key/Preferably/More preferably/Further preferably): Preferably

## 2296 (GIDK; REGION 1..4: note = epitope) [compound 2296]
  Epitope sequence binding to IgE antibody, rank of the sequence (Key/Preferably/More preferably/Further preferably): Key

## 2297 (ERFEK; REGION 1..5: note = epitope) [compound 2297]
  Epitope sequence binding to IgE antibody, rank of the sequence (Key/Preferably/More preferably/Further preferably): Key

## 2299 (GIDK; REGION 1..4: note = epitope) [compound 2299]
[4]
  Epitope sequence binding to IgE antibody, rank of the sequence (Key/Preferably/More preferably): Key

## 2300 (DKRVIERFEK; REGION 1..10: note = epitope) [compound 2300]
[4]
  Epitope sequence binding to IgE antibody, rank of the sequence (Key/Preferably/More preferably): Key

## 2301 (LGGIDK; REGION 1..6: note = epitope) [compound 2301]
[6]
  Epitope sequence binding to IgE antibody, rank of the sequence (Key/Preferably/More preferably): Key

## 2302 (IDKRVIERFE; REGION 1..10: note = epitope) [compound 2302]
[6]
  Epitope sequence binding to IgE antibody, rank of the sequence (Key/Preferably/More preferably): Key

## 2303 (LGGIDK; REGION 1..6: note = epitope) [compound 2303]
[7]
  Epitope sequence binding to IgE antibody, rank of the sequence (Key/Preferably/More preferably): Key

## 2304 (DKRVIERFE; REGION 1..9: note = epitope) [compound 2304]
[7]
  Epitope sequence binding to IgE antibody, rank of the sequence (Key/Preferably/More preferably): Key

## 2305 (LGGIDK; REGION 1..6: note = epitope) [compound 2305]
[8]
  Epitope sequence binding to IgE antibody, rank of the sequence (Key/Preferably/More preferably): Preferably

## 2306 (GIDK; REGION 1..4: note = epitope) [compound 2306]
[8]
  Epitope sequence binding to IgE antibody, rank of the sequence (Key/Preferably/More preferably): Key
